Patent publication US4613607A, “Medicaments based on derivatives of 1-(4-quinolyl)-2-(4-piperidyl)-ethanol or 1-(4-quinolyl)-3-(4-piperidyl)-propanol” (Pharmuka Laboratoires, priority 1980, dated 1986)
Where a name gives a salt, the structure may show the parent alone. Read-outs that look alike come from different tables or passages of the source.

Legend:
[1] = test system: ventricular arhythmia caused by the aconitine; assay: Aconitine test on the rat (delay of ventricular arhythmia caused by perfused aconitine); type: in vivo; details: iv, read-out: Antiarhythmic activity, aconitine test on the rat, ED50
Experimental: The principle of the method rests on the induction time of the ventricular arhythmia caused by the aconitine which is slowly fed by perfusion into rats. An antiarhythmic substance retards the appearance of the arhythmia and the delay is proportional to the activity of the substance.
Groups of 5 male rats were used. An individual anesthesia was effected (10% urethane: 1 g/kg/ip) in order to permit a catheterization of the vein of the penis. The electrocardiogram was recorded. At time T=0 the substance studied was injected in the form of an aqueous solution, at the rate of 2.5 ml of solution per kg in 30 seconds. At time T=60 seconds, say 30 seconds after the end of the injection, the aconitine was perfused at the rate of 20 μg per minute up to the appearance of supraventricular extra systoles. The time of perfusion of the aconitine was noted.
The results are expressed by an ED50, which is the dose of product, in mg/kg, increasing by 50% the time of perfusion of the aconitine in comparison with the perfusion time of aconitine for the control animals.

[2] = Acute toxicity to mice, intravenous; details: in vivo, male mouse DC1, i.v., 3 days observation
Excerpt: Toxicological properties of the compounds of formula (I): […]
The acute toxicities of the compounds of formula (I) (see results in the above Table) have been determined on the male mouse DC1 (Charles River), by the intravenous method. The LD50 have been calculated, after 3 days observation, by the cumulative method of J. J. Reed and H. Muench (Amer. J. Hyg., 27, 493, 1938).

[3] = test system: fibrillations caused by an inhalation of chloroform; assay: Chloroform test on the mouse (protection against fibrillations caused by inhalation of chloroform); type: in vivo; details: ip, 20 min, read-out: Antiarhythmic activity, chloroform test on the mouse, AD50
Experimental: The product to be tested was administered intraperitoneally 20 minutes before chloroformic intoxication and the possible protection against the arhythmia was shown by recording of the electrocardiogram, which was effected from the appearance of the apnoea. The activity of the products is expressed by an AD50 (dose of product in mg/kg which protects 50% of the animals).

[4] = dose which protects 50% of the animals, intraperitoneal, 20 minutes before chloroform

In the case of CC[C@H]1CNCC[C@H]1CC[C@@H](O)c1ccnc2ccc(OC)cc12 [8 (1(R)-propanol isomer)], the ED50 [1] is reported as 0.65 mg/kg, the LD50 at 72 h [2] is reported as 29 mg/kg and the ED50 [3, 4] is reported as 2.5 mg/kg.
Work on C=C[C@H]1C[N@@]2CC[C@H]1C[C@@H]2[C@@H](O)c1ccnc2ccc(OC)cc12 [Quinidine sulfate, reference compound] yielded an ED50 [1] of 7.5 mg/kg, an LD50 at 72 h [2] of 60 mg/kg and an ED50 [3, 4] of 18 mg/kg.
CC[C@H]1CNCC[C@H]1CC[C@H](O)c1ccnc2ccc(OC)cc12 [8 (1(S)-propanol isomer)] gave an ED50 [1] of 0.58 mg/kg, an LD50 at 72 h [2] of 17 mg/kg and an ED50 [3, 4] of 2.5 mg/kg.
C=C[C@@H]1CN(C)CC[C@H]1CC[C@H](O)c1ccnc2ccc(OC)cc12 [9 (3(S)-ethenyl isomer)] gave an ED50 [1] of 1.4 mg/kg, an LD50 at 72 h [2] of 33 mg/kg and an ED50 [3, 4] of over 5 mg/kg.
In the case of C=C[C@H]1CNCC[C@H]1CC[C@@H](O)c1ccnc2ccc(OC)cc12 [Example 7, 3-[3(R)-ETHENYL 4(R)-PIPERIDYL]-1-(6-METHOXY-4-QUINOLYL)-1(R)-PROPANOL], the ED50 [1] is reported as 0.45 mg/kg, the LD50 at 72 h [2] is reported as 33 mg/kg and the ED50 [3] is reported as 3 mg/kg.
For CC(C)(C)c1cc(C(O)CCC2CCNCC2)c2ccccc2n1 (racemic) [Example 12, 1-[2-(1,1-DIMETHYL-ETHYL)-4-QUINOLYL]-3-(4-PIPERIDYL)-1-PROPANOL], the ED50 [1] was 0.8 mg/kg and the LD50 at 72 h [2] was 26 mg/kg.
With OC(CCC1CCNCC1)c1cc(-c2ccccc2)nc2ccccc12 (racemic) [Example 4, 1-(2-PHENYL-4-QUINOLYL)-3-(4-PIPERIDYL)-1-PROPANOL] the ED50 [1] was 1.22 mg/kg, the LD50 at 72 h [2] was 21 mg/kg and the ED50 [3] was 2.5 mg/kg.
For C=C[C@H]1CNCC[C@H]1CC[C@H](O)c1ccnc2ccc(OC)cc12 [Example 6, 3-[3(R)-ETHENYL 4(R)-PIPERIDYL]-1-(6-METHOXY-4-QUINOLYL)-1(S)-PROPANOL], the ED50 [1] was 0.43 mg/kg, the LD50 at 72 h [2] was 20.3 mg/kg and the ED50 [3] was 3 mg/kg.
In the case of C=C[C@H]1CNCC[C@H]1CCC(O)c1ccnc2ccc(OC)cc12 (mixture of isomers) [Example 5, Mixture of 3-[3(R)-ETHENYL 4(R)-PIPERIDYL]-1-(6-METHOXY-4-QUINOLYL)-1-(R)-PROPANOL and 3-[3(R)-ETHENYL 4(R)-PIPERIDYL]-1-(6-METHOXY-4-QUINOLYL)-1(S)-PROPANOL], the ED50 [1] is reported as 0.44 mg/kg, the LD50 at 72 h [2] is reported as 21.5 mg/kg and the ED50 [3] is reported as 3 mg/kg.
In the case of C=C[C@H]1CN(C)CC[C@H]1CC[C@H](O)c1ccnc2ccc(OC)cc12 [9 (3(R)-ethenyl isomer)], the ED50 [1] is reported as 1 mg/kg, the LD50 at 72 h [2] is reported as 19 mg/kg and the ED50 [3, 4] is reported as 5 mg/kg.
